This assay has as its target T1, TsOYE (Thermus scotoductus, UniProt B0JDW3).
T1 construct: gene chrR; overexpressed ene reductase with FMN; construct only in supplement
Briefly: anaerobic stopped-flow flavin reduction. The assay is classed as biochemical. The note with it: apparent; reductive half-reaction; 50 mM MOPS pH 7.0, 5 mM CaCl2, 30 °C. From the text:
anaerobic stopped-flow flavin reduction on TsOYE
On to `NC(=O)C1=CN([C@@H]2O[C@H](COP(=O)(O)OP(=O)(O)OC[C@H]3O[C@@H](n4cnc5c(N)ncnc54)[C@H](O)[C@@H]3O)[C@@H](O)[C@H]2O)C=CC1` [NADH], for which the Kd was 8 ± 0.7 µM.

Turning to `NC(=O)C1=CN([C@@H]2O[C@H](COP(=O)(O)OP(=O)(O)OC[C@H]3O[C@@H](n4cnc5c(N)ncnc54)[C@H](OP(=O)(O)O)[C@@H]3O)[C@@H](O)[C@H]2O)C=CC1` [NADPH], the Kd is 9 ± 0.6 µM.

Turning to `NC(=O)C1=CN(Cc2ccccc2)C=CC1` [compound 1, biomimetic 1], the Kd is 227 ± 5 µM.

On to `CCCCN1C=CCC(C(N)=O)=C1` [compound 2, biomimetic 2], for which the Kd is 406 ± 12 µM.

The record behind these values is publication PMC4731831, “Better than Nature: Nicotinamide Biomimetics That Outperform Natural Coenzymes” (Journal of the American Chemical Society, 2016).
